From BindingDB's records for doi:10.1016/j.ejmech.2018.06.047 (University of Oulu, 2018)

Assay: Inhibition of ARTD10 (unknown origin)-induced cell death expressed in human HeLa cells after 10 days by methylene blue staining based colony formation assay

Row | Compound | IC50
1 | NC(=O)c1ccc(OCc2ccccc2F)cc1 | 2000 nM
2 | NC(=O)c1ccc(Oc2ccc(C=O)cc2)cc1 | 1000 nM
